Molecules are shown by their SMILES. Read-outs that look alike come from different tables or passages of the source.

The assay deals with CFTR-mediated chloride transport in human intestinal epithelial enteroid cells (Homo sapiens, UniProt P13569). Description: Membrane potential dye, Enteroid Assay A. The following applies: for EC50: read-out: Ent. A EC50. The format is cell-based. The protocol:
Base medium (ADF+++) consisted of Advanced DMEM/Ham's F12, 2 mM Glutamax, 10 mM HEPES, […] penicillin/streptomycin.
Bath 1 Buffer consisted of 1 mM MgCl2, 160 mM NaCl, 4.5 mM KCl, 10 mM HEPES, 10 mM Glucose, 2 mM CaCl2.
Chloride Free Buffer consisted of 1 mM Magnesium Gluconate, 2 mM Calcium Gluconate, 4.5 mM Potassium Gluconate, 160 mM Sodium Gluconate, 10 mM HEPES, 10 mM Glucose.
Bath1 Dye Solution consisted of Bath 1 Buffer, 0.04% Pluronic F127, 20 μM Methyl Oxonol, 30 μM CaCCinh-A01, 30 μM Chicago Sky Blue.
Chloride Free Dye Solution consisted of Chloride Free Buffer, 0.04% Pluronic F127, 20 μM Methyl Oxonol, 30 μM CaCCinh-A01, 30 μM Chicago Sky Blue.
3. Enteroid Cell Harvesting and Seeding
Cells were recovered in cell recovery solution, collected by centrifugation at 650 rpm for 5 min at 4° C., resuspended in TryPLE and incubated for 5 min at 37° C. Cells were then collected by centrifugation at 650 rpm for 5 min at 4° C. and resuspended in IEMM containing 10 μM ROCK inhibitor (RI).
4. Membrane Potential Dye, Enteroid Assay A
Briefly, cells were washed 5 times in Bath 1 Buffer. Bath 1 Dye Solution was added, and the cells were incubated for 25 min at room temperature. Following dye incubation, cells were washed 3 times in Chloride Free Dye Solution. Chloride transport was initiated by addition of Chloride Free Dye Stimulation Solution and the fluorescence signal was read for 15 min. […] Chloride transport was then expressed as a percentage of the chloride transport following treatment with 3 μM N-[(6-amino-2-pyridyl)sulfonyl]-6-(3-fluoro-5-isobutoxy-phenyl)-2-[(4S)-2,2,4-trimethylpyrrolidin-1-yl]pyridine-3-carboxamide, 3 μM (R)-1-(2,2-difluorobenzo[d][1,3]dioxol-5-yl)-N-(1-(2,3-dihydroxypropyl)-6-fluoro-2-(1-hydroxy-2-methylpropan-2-yl)-1H-indol-5-yl)cyclopropanecarboxamide and 300 nM acute N-[2,4-bis(1,1-dimethylethyl)-5-hydroxyphenyl]-1,4-dihydro-4-oxoquinoline-3-carboxamide triple combination control (% Activity).

Setting [1] is: enteroid cells incubated with test compound 18-24 hours, acute 10 μM forskolin and 300 nM N-[2,4-bis(1,1-dimethylethyl)-5-hydroxyphenyl]-1,4-dihydro-4-oxoquinoline-3-carboxamide.
The mark [2] stands for this setting: percentage of chloride transport of triple combination control (3 μM N-[(6-amino-2-pyridyl)sulfonyl]-6-(3-fluoro-5-isobutoxy-phenyl)-2-[(4S)-2,2,4-trimethylpyrrolidin-1-yl]pyridine-3-carboxamide based).

CFTR-mediated chloride transport in human intestinal epithelial enteroid cells, sequence (P13569 with tags, fused parts or gaps DEL508-508): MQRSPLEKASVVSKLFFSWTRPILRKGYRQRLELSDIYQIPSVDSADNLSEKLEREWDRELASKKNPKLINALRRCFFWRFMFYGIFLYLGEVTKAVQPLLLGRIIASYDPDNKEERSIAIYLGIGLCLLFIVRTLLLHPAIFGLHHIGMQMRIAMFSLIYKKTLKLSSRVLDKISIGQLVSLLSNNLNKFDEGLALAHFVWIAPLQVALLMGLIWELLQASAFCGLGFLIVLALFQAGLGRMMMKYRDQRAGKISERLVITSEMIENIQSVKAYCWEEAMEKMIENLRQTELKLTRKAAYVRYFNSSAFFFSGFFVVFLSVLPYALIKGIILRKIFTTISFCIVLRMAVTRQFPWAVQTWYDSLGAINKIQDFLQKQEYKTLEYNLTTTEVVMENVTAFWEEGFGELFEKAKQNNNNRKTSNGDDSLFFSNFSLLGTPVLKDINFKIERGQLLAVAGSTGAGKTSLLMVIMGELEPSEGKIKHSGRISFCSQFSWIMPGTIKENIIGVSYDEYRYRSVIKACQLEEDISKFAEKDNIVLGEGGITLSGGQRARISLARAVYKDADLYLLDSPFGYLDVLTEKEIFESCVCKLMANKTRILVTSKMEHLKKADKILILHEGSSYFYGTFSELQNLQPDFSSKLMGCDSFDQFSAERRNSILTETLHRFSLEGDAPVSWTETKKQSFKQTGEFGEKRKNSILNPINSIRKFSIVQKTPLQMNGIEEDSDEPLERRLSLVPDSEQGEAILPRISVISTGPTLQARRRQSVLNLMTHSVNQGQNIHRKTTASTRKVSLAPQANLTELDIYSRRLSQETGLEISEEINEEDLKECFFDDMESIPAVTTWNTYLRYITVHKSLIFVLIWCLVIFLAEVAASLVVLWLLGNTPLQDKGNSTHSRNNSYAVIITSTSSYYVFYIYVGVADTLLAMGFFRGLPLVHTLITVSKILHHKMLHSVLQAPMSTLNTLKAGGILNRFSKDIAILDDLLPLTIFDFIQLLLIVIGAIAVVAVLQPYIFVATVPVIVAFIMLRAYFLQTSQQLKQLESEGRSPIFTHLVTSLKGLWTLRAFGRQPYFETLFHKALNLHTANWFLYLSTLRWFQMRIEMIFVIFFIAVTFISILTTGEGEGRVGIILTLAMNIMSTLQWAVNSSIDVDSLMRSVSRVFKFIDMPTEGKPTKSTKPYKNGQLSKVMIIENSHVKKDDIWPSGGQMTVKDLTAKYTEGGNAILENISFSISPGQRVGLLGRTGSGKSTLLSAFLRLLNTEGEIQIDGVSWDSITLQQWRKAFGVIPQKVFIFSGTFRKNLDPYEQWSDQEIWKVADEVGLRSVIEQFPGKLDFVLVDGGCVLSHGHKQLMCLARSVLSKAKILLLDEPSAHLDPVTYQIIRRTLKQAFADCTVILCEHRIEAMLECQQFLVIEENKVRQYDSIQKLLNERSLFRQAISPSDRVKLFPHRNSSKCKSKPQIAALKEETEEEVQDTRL

Broadly, the EC50 is the concentration that produces a half-maximal response. Regarding `Cc1cccc(C)c1-c1cc2nc(n1)NS(=O)(=O)c1cccc(c1)C(=O)N1CCc3ccccc3C(C1)O2` (single isomer, unassigned) [Compound 221, 12-(2,6-dimethylphenyl)-15-oxa-8λ^6-thia-1,9,11,26-tetraazapentacyclo[14.8.1.13,7.110,14.017,22]heptacosa-3(27),4,6,10(26),11,13,17,19,21-nonaene-2,8,8-trione], the EC50 (Enteroid Assay A) was less than 1000 nM.

For the compound `Cc1cccc(C)c1-c1cc2nc(n1)NS(=O)(=O)c1cccc(c1)C(=O)N1CC(CC(c3ccccc3)C1)O2` (single isomer, unassigned) [Compound 223, 18-(2,6-dimethylphenyl)-5-phenyl-2-oxa-14λ^6-thia-7,15,17,20-tetraazatetracyclo[14.3.1.13,7.19,13]docosa-1(19),9(21),10,12,16(20),17-hexaene-8,14,14-trione], the half-maximal effective concentration (EC50) under setting [1] is less than 1000 nM. For the same compound, the “Ent. A Max Activity (%)” value under setting [2] was “++ (++ is 30-60%)”.

With `Cc1cccc(C)c1-c1cc2nc(n1)NS(=O)(=O)c1cccc(c1)C(=O)N1CC(CC(c3ccccc3)C1)O2` (single isomer, unassigned) [Compound 224, 18-(2,6-dimethylphenyl)-5-phenyl-2-oxa-14λ^6-thia-7,15,17,20-tetraazatetracyclo[14.3.1.13,7.19,13]docosa-1(19),9(21),10,12,16(20),17-hexaene-8,14,14-trione], the 50% effective concentration (EC50) under setting [1] was less than 1000 nM. Also, the “Ent. A Max Activity (%)” value under setting [2] is on record as “++ (++ is 30-60%)”.

Take `Cc1cccc(C)c1-c1cc2nc(n1)NS(=O)(=O)c1cccc(c1)C(=O)N1CC(CCC1c1ccccc1)O2` (single isomer, unassigned) [Compound 225, 18-(2,6-dimethylphenyl)-6-phenyl-2-oxa-14λ^6-thia-7,15,17,20-tetraazatetracyclo[14.3.1.13,7.19,13]docosa-1(19),9(21),10,12,16(20),17-hexaene-8,14,14-trione]: the EC50 under setting [1] is less than 1000 nM. Also, the “Ent. A Max Activity (%)” value under setting [2] was “++ (++ is 30-60%)”.

As to `Cc1cccc(C)c1-c1cc2nc(n1)NS(=O)(=O)c1cccc(c1)C(=O)N1CC(CCC1c1ccccc1)O2` (single isomer, unassigned) [Compound 226, 18-(2,6-Dimethylphenyl)-6-phenyl-2-oxa-14λ^6-thia-7,15,17,20-tetraazatetracyclo[14.3.1.13,7.19,13]docosa-1(19),9(21),10,12,16(20),17-hexaene-8,14,14-trione], the concentration giving a half-maximal response (EC50) under setting [1] is less than 1000 nM. Further, the “Ent. A Max Activity (%)” value under setting [2] is given as “++ (++ is 30-60%)”.

Consider `Cc1cccc(C)c1-c1cc2nc(n1)NS(=O)(=O)c1cccc(c1)C(=O)N1CCCC(O2)C1CC(C)C` (single isomer, unassigned) [Compound 230, 18-(2,6-Dimethylphenyl)-22-(2-methylpropyl)-2-oxa-14λ^6-thia-7,15,17,20-tetraazatetracyclo[14.3.1.13,7.19,13]docosa-1(20),9(21),10,12,16,18-hexaene-8,14,14-trione], for which the EC50 under setting [1] was less than 1000 nM. The “Ent. A Max Activity (%)” value under setting [2] is recorded as “+++ (+++ is >60%)”.

Turning to `Cc1cccc(C)c1-c1cc2nc(n1)NS(=O)(=O)c1cccc(c1)C(=O)N1CCCC(O2)C1CC(C)C` (single isomer, unassigned) [Compound 231, 18-(2,6-Dimethylphenyl)-22-(2-methylpropyl)-2-oxa-14λ^6-thia-7,15,17,20-tetraazatetracyclo[14.3.1.13,7.19,13]docosa-1(20),9(21),10,12,16,18-hexaene-8,14,14-trione], the EC50 under setting [1] is less than 1000 nM. Under setting [2], the “Ent. A Max Activity (%)” value was “+++ (+++ is >60%)”.

Regarding `Cc1cccc(C)c1-c1cc2nc(n1)NS(=O)(=O)c1cccc(c1)C(=O)N1CC(C)(C)CC(O2)C1CC(C)C` (single isomer, unassigned) [Compound 232, 18-(2,6-Dimethylphenyl)-5,5-dimethyl-22-(2-methylpropyl)-2-oxa-14λ^6-thia-7,15,17,20-tetraazatetracyclo[14.3.1.13,7.19,13]docosa-1(20),9(21),10,12,16,18-hexaene-8,14,14-trione], where the note is “Enteroid Assay A”, the EC50 was less than 1000 nM.

Regarding `Cc1cccc(C)c1-c1cc2nc(n1)NS(=O)(=O)c1cccc(c1)C(=O)N1CC(C)(C)CC(O2)C1CC(C)C` (single isomer, unassigned) [Compound 233, 18-(2,6-dimethylphenyl)-5,5-dimethyl-22-(2-methylpropyl)-2-oxa-14λ^6-thia-7,15,17,20-tetraazatetracyclo[14.3.1.13,7.19,13]docosa-1(20),9(21),10,12,16,18-hexaene-8,14,14-trione], under “Enteroid Assay A”, the EC50 was less than 1000 nM.

Turning to `Cc1cccc(C)c1-c1cc2nc(n1)NS(=N)(=O)c1cccc(c1)C(=O)N1CCN(CCC(C)(C)C)C[C@H](C1)O2` (single isomer, unassigned) [Compound 244, 18-(3,3-dimethylbutyl)-12-(2,6-dimethylphenyl)-8-imino-15-oxa-8λ^6-thia-1,9,11,18,22-pentaazatetracyclo[14.4.1.13,7.110,14]tricosa-3,5,7(23),10,12,14(22)-hexaene-2,8-dione], where the note is “Enteroid Assay A”, the “Ent. A Max Activity (%)” value is “+ (+ is <30%)”.

`Cc1cccc(C)c1-c1cc2nc(n1)NS(=O)(=O)c1cccc(c1)C(=O)N1C[C@@H](CN(CC(F)(F)F)CC1CC(C)C)O2` (stereo in doubt) [Compound 105, (16R,20R)-12-(2,6-Dimethylphenyl)-20-(2-methylpropyl)-18-(2,2,2-trifluoroethyl)-15-oxa-8λ^6-thia-1,9,11,18,22-pentaazatetracyclo[14.4.1.13,7.110,14]tricosa-3(23),4,6,10,12,14(22)-hexaene-2,8,8-trione]: the “Ent. A Max Activity (%)” value (Enteroid Assay A) is reported as “+ (+ is <30%)”.

As for `Cc1cccc(C)c1-c1cc2nc(n1)NS(=O)(=O)c1cccc(c1)CN1C[C@@H](CN(Cc3ccccc3)CC1=O)O2` (stereo in doubt) [Compound 144], where the note is “Enteroid Assay A”, the “Ent. A Max Activity (%)” value is on record as “++ (++ is 30-60%)” and the EC50 is less than 1000 nM.

For `Cc1cccc(C)c1-c1cc2nc(n1)NS(=O)(=O)c1cccc(c1)C(=O)N1CCN(C[C@@H]3CC(C)(C)NC3=O)C[C@@H]1CO2` (stereo in doubt) [Compound 293], the “Ent. A Max Activity (%)” value under setting [2] is “+ (+ is <300%)”.

For the compound `Cc1cccc(C)c1-c1cc2nc(n1)NS(=O)(=O)c1cccc(c1)C(=O)N1Cc3ccccc3[C@@H](O2)[C@H]1CC(C)C` (stereo in doubt) [Compound 332], the concentration giving a half-maximal response (EC50) under setting [1] is less than 1000 nM. In addition, the “Ent. A Max Activity (%)” value under setting [2] is on record as “+++ (+++ is >60%)”.

Consider `Cc1cccc(C)c1-c1cc2nc(n1)NS(=O)(=O)c1cccc(c1)C(=O)N1CCNC[C@H](C1)O2` [Compound 2, (16R)-12-(2,6-Dimethylphenyl)-15-oxa-8λ^6-thia-1,9,11,18,22-pentaazatetracyclo[14.4.1.13,7.110,14]tricosa-3,5,7(23),10,12,14(22)-hexaene-2,8,8-trione], for which, under setting [1], the EC50 is 3000 to 30000 nM. In addition, the “Ent. A Max Activity (%)” value under setting [2] is “+++ (+++ is >60%)”.

With `Cc1cccc(C)c1-c1cc2nc(n1)NS(=O)(=O)c1cccc(c1)C(=O)N1CCN(C3CC4(CCCCC4)C3)C[C@H](C1)O2` [Compound 3, (16R)-12-(2,6-Dimethylphenyl)-18-{spiro[3.5]nonan-2-yl}-15-oxa-8λ^6-thia-1,9,11,18,22-pentaazatetracyclo[14.4.1.13,7.110,14]tricosa-3(23),4,6,10(22),11,13-hexaene-2,8,8-trione], for the setting “Enteroid Assay A”, the “Ent. A Max Activity (%)” value is “+++ (+++ is >600%)” and the concentration for a half-maximal effect (EC50) was less than 1000 nM.

On to `Cc1cccc(C)c1-c1cc2nc(n1)NS(=O)(=O)c1cccc(c1)C(=O)N1CCN(C3CCC(F)(F)CC3)C[C@H](C1)O2` [Compound 4, (16R)-18-(4,4-Difluorocyclohexyl)-12-(2,6-dimethylphenyl)-15-oxa-8λ^6-thia-1,9,11,18,22-pentaazatetracyclo[14.4.1.13,7.110,14]tricosa-3(23),4,6,10(22),11,13-hexaene-2,8,8-trione], for which, for the setting “Enteroid Assay A”, the “Ent. A Max Activity (%)” value is given as “+++ (+++ is >600%)” and the EC50 was less than 1000 nM.

Consider `Cc1cccc(C)c1-c1cc2nc(n1)NS(=O)(=O)c1cccc(c1)C(=O)N1CCN(C3CCC(C)(C)CC3)C[C@H](C1)O2` [Compound 5, (16R)-18-(4,4-Dimethylcyclohexyl)-12-(2,6-dimethylphenyl)-15-oxa-8λ^6-thia-1,9,11,18,22-pentaazatetracyclo[14.4.1.13,7.110,14]tricosa-3(23),4,6,10,12,14(22)-hexaene-2,8,8-trione], for which the “Ent. A Max Activity (%)” value is given as “+++ (key: +++ is >600%; ++ is 30-60%; + is <30%)” and the half-maximal effective concentration (EC50) was less than 1000 nM.

Source of the values: US20240018161A1, “MODULATORS OF CYSTIC FIBROSIS TRANSMEMBRANE CONDUCTANCE REGULATOR” (VERTEX PHARMACEUTICALS INCORPORATED, priority 2020, published 2024).
